Measurements taken from PMC7155171, “Probing the Open Global Health Chemical Diversity Library for Multistage-Active Starting Points for Next-Generation Antimalarials” (ACS Infectious Diseases, 2020).
Like-named read-outs stand apart in the source and are kept apart here.

Experiments:
[1] = system: P. falciparum Dd2 (PfLuc) line expressing firefly luciferase, asexual blood stage; experiment: microbe, parasite or virus in culture; format: cell-based, Plasmodium falciparum; details: Plasmodium falciparum
P. falciparum Dd2 = experiment: SYBR green I asexual blood stage proliferation assay (96 h); format: cell-based, Plasmodium falciparum; details: Plasmodium falciparum, DD2, 11-pt dose response, 96hr
[2] = DD2, read-out: CDD P. falciparum Luciferase ABS 11-pt Reconfirmation Dose Response (48hr): IC50 (μM), 11-pt dose response, 48hr
[3] = DD2, 8-pt dose response, 96hr, read-out: CDD P. falciparum Luciferase ABS 8-pt Reconfirmation Dose Response (96hr): IC50
[4] = DD2, 8-pt dose response, 96hr, read-out: CDD P. falciparum Luciferase ABS 8-pt Reconfirmation Dose Response (96hr): Maximum inhibition (%)
[5] = DD2, 11-pt dose response, 48hr, read-out: CDD P. falciparum Luciferase ABS 11-pt Reconfirmation Dose Response (48hr): Maximum inhibition (%)
[6] = DD2, 11-pt dose response, 96hr, read-out: CDD P. falciparum Luciferase ABS 11-pt Reconfirmation Dose Response (96hr): IC50
[7] = DD2, 11-pt dose response, 96hr, read-out: CDD P. falciparum Luciferase ABS 11-pt Reconfirmation Dose Response (96hr): Maximum inhibition (%)
[8] = Sybr Green I, read-out: CDD P. falciparum Sybr Green I ABS 11-pt Reconfirmation Dose Response (96hr): IC50
[9] = Sybr Green I, read-out: CDD P. falciparum Sybr Green I ABS 11-pt Reconfirmation Dose Response (96hr): Maximum inhibition (%)
[10] = DD2, read-out: P. falciparum Luciferase ABS 11-pt Reconfirmation Dose Response (48hr): IC50, 11-pt dose response, 48hr
[11] = DD2, 8-pt dose response, 96hr, read-out: P. falciparum Luciferase ABS 8-pt Reconfirmation Dose Response (96hr): IC50
[12] = DD2, 8-pt dose response, 96hr, read-out: P. falciparum Luciferase ABS 8-pt Reconfirmation Dose Response (96hr): Maximum inhibition (%)
[13] = DD2, 11-pt dose response, 48hr, read-out: P. falciparum Luciferase ABS 11-pt Reconfirmation Dose Response (48hr): Maximum inhibition (%)
[14] = DD2, 11-pt dose response, 96hr, read-out: P. falciparum Luciferase ABS 11-pt Reconfirmation Dose Response (96hr): IC50
[15] = DD2, 11-pt dose response, 96hr, read-out: P. falciparum Luciferase ABS 11-pt Reconfirmation Dose Response (96hr): Maximum inhibition (%)
[16] = read-out: P. falciparum Sybr Green I ABS 11-pt Reconfirmation Dose Response (96hr): IC50
[17] = read-out: P. falciparum Sybr Green I ABS 11-pt Reconfirmation Dose Response (96hr): Maximum inhibition (%)
[18] = 96 h incubation, Dd2 luciferase, read-out: 96 hour Pfluc IC50

Row | Structure (SMILES) | IC50 [1, 2] [µM] | IC50 [1, 3] [µM] | Emax [1, 4] [%] | Emax [1, 5] [%] | IC50 [1, 6] [µM] | Emax [1, 7] [%] | IC50 (P. falciparum Dd2; [8]) [nM] | Emax (P. falciparum Dd2; [9]) [%] | IC50 [1, 10] [µM] | IC50 [1, 11] [µM] | Emax [1, 12] [%] | Emax [1, 13] [%] | IC50 [1, 14] [µM] | Emax [1, 15] [%] | IC50 (P. falciparum Dd2; [16]) [nM] | Emax (P. falciparum Dd2; [17]) [%] | IC50 [1, 18] [µM]
1 | Cc1cccnc1CN1CC[C@H](Oc2cccc(F)c2)[C@@](C)(O)C1 [DDD01060871] | 1.92 | 0.92 | 90.5 | 93.1 | 0.553 | 100 | 2590 | 82.8 |  |  |  |  |  |  |  |  | 
2 | CC1(C)CC(N(Cc2cccnc2)Cc2cccc(F)c2)CC(C)(C)N1 [DDD01060979] | 3.32 | 0.3 | 88 |  | > 1.39 | 98.4 | 8550 | 79.9 |  |  |  |  |  |  |  |  | 
3 | Cc1ccsc1CN(Cc1cccnc1)C1CC(C)(C)NC(C)(C)C1 [DDD01060982] | 4.19 | 1.04 | 88.1 | 61.9 | 1.59 | 95.6 | > 4160 | 70.5 |  |  |  |  |  |  |  |  | 
4 | Cc1ccsc1CN(CCCN(C)C)Cc1ccccn1 [DDD01060996] | > 12.5 | 0.55 | 79.6 | 51.6 | 3.57 | 82.3 | > 12500 | 46.2 |  |  |  |  |  |  |  |  | 
5 | COc1ccc(C(C)NCc2ccsc2)cc1Cn1cccn1 (stereo not shown) [DDD01061827] | > 12.5 | 0.79 | 81.9 | 38.8 | 1.78 | 68.9 | > 4160 | 58.7 |  |  |  |  |  |  |  |  | 
6 | Cc1ccc(CNC(C)c2cc(F)ccc2N2CCN(C)CC2)o1 (stereo not shown) [DDD01061881] | 3.93 | 0.41 | 90.7 | 87.5 | 2.12 | 97.7 | 2420 |  |  |  |  |  |  |  |  |  | 
7 | Cc1cnn(CCNCc2nccn2Cc2ccccc2)c1 [DDD01062085] | 10.4 | 0.53 |  | 75 | 1.22 | 95.2 | > 12500 | 51.3 |  |  |  |  |  |  |  |  | 
8 | CN1CCC(N(Cc2ccco2)S(=O)(=O)c2ccc(Br)cc2Cl)CC1 [DDD01063208] | > 12.5 | 0.58 | 76.6 | 21.3 | 2.19 | 81.7 | 10600 | 54.5 |  |  |  |  |  |  |  |  | 
9 | Cc1ccc(CN(c2cc(C)nc3nc(C(F)(F)F)nn23)C2CC2)cc1 [DDD01063654] | 2.34 | 0.37 |  | 89.4 | 0.45 | 99.7 | 2100 |  |  |  |  |  |  |  |  |  | 
10 | CN(Cc1cc(F)cc2cccnc12)CC1CCN(CCO)CC1 [DDD01063806] | 3.63 | 0.92 | 93.1 | 96.1 | 2.11 | 100 | 1110 | 93.2 |  |  |  |  |  |  |  |  | 
11 | CN(Cc1cc(Cl)cc2cccnc12)CC1CCN(CCO)CC1 [DDD01063807] | 2.2 | 0.36 | 94.1 | 97.5 | 1.42 | 100 | 584 | 95.8 |  |  |  |  |  |  |  |  | 
12 | c1cc(N2CCC(CN3CCOCC3)CC2)c2sccc2n1 [DDD01064806] |  |  |  |  |  |  |  |  | 1.38 | 1.43 | 94.6 | 99.7 | 1.12 | 100 | 1150 | 100 | 
13 | CNC(=O)CCN(C)CC1(c2ccc(Br)cc2)CC1 [DDD01064880] | 5.21 | 0.54 |  | 64.4 | 4.63 | 88.9 | 6590 | 73.3 |  |  |  |  |  |  |  |  | 
14 | Cc1cc(C)c(CNCC(O)c2ccc(F)c(F)c2)c(C)c1 (stereo not shown) [DDD01065539] | 0.316 | 0.15 | 96.6 | 97.4 | 0.143 | 100 | 312 | 99.5 |  |  |  |  |  |  |  |  | 
15 | CC(NCCc1nccn1Cc1ccccc1)c1ccsc1 (stereo not shown) [DDD01065612] | 4.05 | 1.09 | 87.3 | 68.1 | 0.666 | 88.3 | 960 | 77.4 |  |  |  |  |  |  |  |  | 
16 | CN1CCC(O)(CNCc2ccc(F)c(C(F)(F)F)c2)CC1 [DDD01065665] | > 12.5 | 0.71 | 90.5 | 33.7 | 4.45 | 88.8 | 3170 | 86.1 |  |  |  |  |  |  |  |  | 

Row | Structure (SMILES) | IC50 [1, 2] [µM] | IC50 [1, 3] [µM] | Emax [1, 4] [%] | Emax [1, 5] [%] | IC50 [1, 6] [µM] | Emax [1, 7] [%] | IC50 (P. falciparum Dd2; [8]) [nM] | Emax (P. falciparum Dd2; [9]) [%] | IC50 [1, 10] [µM] | IC50 [1, 11] [µM] | Emax [1, 12] [%] | Emax [1, 13] [%] | IC50 [1, 14] [µM] | Emax [1, 15] [%] | IC50 (P. falciparum Dd2; [16]) [nM] | Emax (P. falciparum Dd2; [17]) [%] | IC50 [1, 18] [µM]
17 | CC1(C)CN(C(CNC2=NCCN2)c2ccc(Cl)cc2)CCO1 (stereo not shown) [DDD01066238] | 0.786 | 0.55 | 80.3 | 64.5 | 3.52 | 81.2 | 3750 | 50.5 |  |  |  |  |  |  |  |  | 
18 | O=C(CC1CCCC1)NCCNCc1cccc2c1OCCO2 [DDD01067280] | > 12.5 | 1.09 | 84.7 | 64.2 | > 1.39 | 89.2 | > 4160 | 67 |  |  |  |  |  |  |  |  | 
19 | c1cc2c(cc1C1(CNC3=NCCN3)CCCC1)OCCO2 [DDD01067440] | 8.77 | 0.57 | 86.8 | 68.7 | 1.63 | 92 | 1240 | 65.6 |  |  |  |  |  |  |  |  | 
20 | Clc1ccc(C2(CNC3=NCCN3)CC2)cc1 [DDD01067441] | 1.96 | 0.55 | 95.1 | 96.7 | 0.613 | 99.9 | 760 | 101 |  |  |  |  |  |  |  |  | 
21 | Clc1ccc(C2(CNC3=NCCN3)CCCC2)cc1 [DDD01067443] | 5.56 | 0.25 | 94.9 | 90 | 0.995 | 98.3 | 2260 | 98.5 |  |  |  |  |  |  |  |  | 1
22 | Clc1ccc(C2(CNC3=NCCN3)CCCCC2)cc1 [DDD01067446] | 2.9 | 0.22 | 96.3 | 97.1 | 0.731 | 99.6 | 1290 | 99.8 |  |  |  |  |  |  |  |  | 
23 | Fc1ccc(C2(CNC3=NCCN3)CCCC2)cc1 [DDD01067448] |  |  |  |  |  |  |  |  | 6.73 | 1.43 | 88.3 |  | 1.18 | 95.9 | 3300 | 94.1 | 
24 | CCN1CCCN(S(=O)(=O)c2cc3ccccc3o2)CC1 [DDD01067562] | 8.55 | 0.58 | 87.2 | 65 | 1.34 | 85.4 | 1460 | 73.1 |  |  |  |  |  |  |  |  | 
25 | O=C(Nc1nccs1)C1CCCN1Cc1ccccn1 (stereo not shown) [DDD01068868] | 0.884 | 0.3 |  | 91.2 | 0.303 | 99.3 | 888 | 96.4 |  |  |  |  |  |  |  |  | 
26 | Cc1cccc(OC(C)C(=O)NCC2(N(C)C)CCCC2)c1 (stereo not shown) [DDD01069466] | > 12.5 | 0.95 |  | 46.7 | 2.5 | 85.7 | 2140 | 64.8 |  |  |  |  |  |  |  |  | 
27 | CN1CCN(CC(NCc2ccc(F)c(F)c2)c2ccccc2)CC1 (stereo not shown) [DDD01069631] | 5.37 | 0.58 | 89.5 | 78.3 | 0.913 | 94.6 | 4410 | 85.4 |  |  |  |  |  |  |  |  | 0.91
28 | CC(C)(C)C(=O)NCCNCc1ccc(Cl)c2cccnc12 [DDD01070293] | > 12.5 | 1.05 | 82 | 37.6 | 1.51 | 83.4 | 2250 | 64.4 |  |  |  |  |  |  |  |  | 
29 | CCN1CCN(c2ccc(F)cc2C(C)NCc2ccccn2)CC1 (stereo not shown) [DDD01070491] | > 12.5 | 0.83 | 82.8 | 53 | 1.9 |  | > 4160 | 73.8 |  |  |  |  |  |  |  |  | 
30 | CCN1CCN(c2ccc(F)cc2C(C)NCc2cscn2)CC1 (stereo not shown) [DDD01070576] |  |  |  |  |  |  |  |  | > 12.5 | 1.25 | 87.1 | 47.9 | 2.44 |  | 7180 | 78.2 | 
31 | Cc1cc(Cl)ccc1S(=O)(=O)NCC(C)N1CCN(C)CC1 (stereo not shown) [DDD01071406] |  |  |  |  |  |  |  |  | 6.35 | 1.66 | 87.3 | 56.6 | 4.93 | 86.6 | > 4160 |  | 
